Literature values as cited in paper PMC10014483 (Bioorganic & Medicinal Chemistry Letters, 2023).

Key:
[1] = mice
SARS-CoV-2 = conditions: transgenic mouse model of SARS-CoV-2 infection, orally effective

SMILES: CC(C)(C)[C@H](NC(=O)C(F)(F)F)C(=O)N1C[C@H]2[C@@H]([C@H]1C(=O)N[C@H](C#N)C[C@@H]1CCNC1=O)C2(C)C [Nirmatrelvir]
- oral bioavailability: unsatisfied
- plasma half-life: short

SMILES: CC(C)(C)OC(=O)Nc1cccn([C@@H](CC2CC2)C(=O)N[C@@H](C[C@@H]2CCNC2=O)C(=O)C(=O)NCc2ccccc2)c1=O [Compound 13b]
- toxicity [1]: low toxicity

SMILES: CC1(C)[C@@H]2[C@@H](C(=O)N[C@H](C=O)C[C@@H]3CCNC3=O)N(C(=O)COc3ccc(OC(F)(F)F)cc3)C[C@@H]21 [MI-09]
- viral load in the lungs and lung lesions (SARS-CoV-2): significantly reduced
